molecular target: T1, human Farnesoid X Receptor (FXR) ligand binding domain (GST-FXR LBD) (Homo sapiens, UniProt Q96RI1); test: Human GST-FXR LBD co-activator interaction assay (HTRF); type: biochemical; settings: GST-FXR LBD / biotin-SRC-1 peptide FRET; response relative to GW4064; read-out: FXR Co-activator interaction assay (EC50)
T1 construct: purchased Invitrogen
T1 sequence (Q96RI1 193-472 isoform Q96RI1-2): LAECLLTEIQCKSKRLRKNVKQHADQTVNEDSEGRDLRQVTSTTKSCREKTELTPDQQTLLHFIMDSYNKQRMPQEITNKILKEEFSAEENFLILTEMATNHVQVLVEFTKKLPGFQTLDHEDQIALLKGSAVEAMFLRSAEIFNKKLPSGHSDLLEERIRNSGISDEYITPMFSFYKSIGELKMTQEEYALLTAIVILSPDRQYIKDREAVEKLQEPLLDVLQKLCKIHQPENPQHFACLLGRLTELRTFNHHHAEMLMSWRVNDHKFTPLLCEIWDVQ
How it was run: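 FRET (HTRF) read-out of ligand-induced binding between GST-FXR LBD and an SRC-1 peptide, detected with anti-GST cryptate and streptavidin-XL665 in buffer with 50 mM KF. Response % was normalized to DMSO and to the maximal GW4064 response. EC50 came from a four-parameter fit.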

SMILES	EC50
O=C(O)c1cnc2c(N3C4CC[C@H]3CC(OCc3c(-c5ccccc5OC(F)(F)F)noc3C3CC3)C4)cccc2c1 (stereo partly drawn) [Example 28-17]	9.8 nM
O=C(O)c1noc2cc(N3C4CC[C@H]3CC(OCc3c(-c5ccccc5OC(F)(F)F)noc3C3CC3)C4)ccc12 (stereo partly drawn) [Example 28-18]	8.2 nM
Cn1c(C(=O)O)cc2cc(N3C4CC[C@H]3CC(OCc3c(-c5ccccc5OC(F)(F)F)noc3C3CC3)C4)ccc21 (stereo partly drawn) [Example 28-19]	1.5 nM
O=C(O)c1nsc2cc(N3C4CC[C@H]3CC(OCc3c(-c5ccccc5C(F)(F)F)noc3C3CC3)C4)ccc12 (stereo partly drawn) [Example 28-21]	2.2 nM
O=C(O)c1nsc2cc(N3[C@@H]4CC[C@H]3C[C@@H](OCc3c(-c5ccccc5C5CC5)noc3C3CC3)C4)ccc12 [Example 28-22]	0.2 nM
O=C(O)c1nsc2cc(N3C4CC[C@H]3CC(OCc3c(-c5ccccc5OC(F)(F)F)noc3C3CC3)C4)c(F)cc12 (stereo partly drawn) [Example 28-23]	0.5 nM
O=C(O)c1cn2ccc(N3C4CCC3CC(OCc3c(-c5ccccc5OC(F)(F)F)noc3C3CC3)C4)cc2n1 (stereo not drawn) [Example 28-24]	24 nM
Cn1nc(C(=O)O)c2ccc(N3C4CC[C@H]3CC(OCc3c(-c5ccccc5OC(F)(F)F)noc3C3CC3)C4)cc21 (stereo partly drawn) [Example 28-25]	1.1 nM
Cn1nc(C(=O)O)c2ccc(N3[C@@H]4CC[C@H]3C[C@@H](OCc3c(-c5ccccc5C(F)(F)F)noc3C3CC3)C4)cc21 [Example 28-26]	1.2 nM
O=C(O)c1cc(F)c2nc(N3C4CC[C@H]3CC(OCc3c(C5C6CCCC65)noc3C3CC3)C4)sc2c1 (stereo partly drawn) [Example 29-1]	14 nM
CC12CCCC1C2c1noc(C2CC2)c1COC1CC2CC[C@@H](C1)N2c1nc2c(F)cc(C(=O)O)cc2s1 (stereo partly drawn) [Example 29-2]	8 nM
O=C(O)c1cc(F)c2nc(N3[C@@H]4CC[C@H]3C[C@@H](OCc3c(C5CCCC5)noc3C3CC3)C4)sc2c1 [Example 29-3]	11 nM
O=C(O)c1cc(F)c2nc(N3[C@@H]4CC[C@H]3C[C@@H](OCc3c(C5CC6(CC6)C5)noc3C3CC3)C4)sc2c1 [Example 29-4]	11 nM
C[C@@H]1C(c2noc(C3CC3)c2COC2CC3CC[C@@H](C2)N3c2nc3c(F)cc(C(=O)O)cc3s2)C[C@@H]2C[C@H]1C2(C)C (stereo partly drawn) [Example 29-5]	6 nM
O=C(O)c1cc(F)c2nc(N3C4CC[C@H]3CC(OCc3c(C5CCCCC56CC6)noc3C3CC3)C4)sc2c1 (stereo partly drawn) [Example 29-6]	2 nM
O=C(O)c1cc(F)c2nc(N3C4CC[C@H]3CC(OCc3c(C5CCC6CC6C5)noc3C3CC3)C4)sc2c1 (stereo partly drawn) [Example 29-7]	5 nM
Cc1ccccc1-c1noc(C2CC2)c1COC1CC2CC[C@@H](C1)N2c1nc2c(F)cc(C(=O)O)cc2s1 (stereo partly drawn) [Example 30-1]	0.3 nM
Cc1ccccc1-c1noc(C2CC2)c1CO[C@H]1C[C@H]2CC[C@@H](C1)N2c1ccc(C(=O)O)cn1 [Example 30-2]	10 nM
Cc1cc(C(=O)O)nc(N2C3CC[C@H]2CC(OCc2c(-c4ccccc4C)noc2C2CC2)C3)n1 (stereo partly drawn) [Example 30-3]	15 nM
Cc1ccccc1-c1noc(C2CC2)c1CO[C@H]1C[C@H]2CC[C@@H](C1)N2c1nc2ccc(C(=O)O)cc2s1 [Example 30-4]	0.7 nM

SMILES	EC50
COc1cc(C(=O)O)cc2sc(N3C4CC[C@H]3CC(OCc3c(-c5ccccc5C)noc3C3CC3)C4)nc12 (stereo partly drawn) [Example 30-5]	0.4 nM
O=C(O)c1ccc2nc(N3[C@@H]4CC[C@H]3C[C@@H](OCc3c(-c5ccc(F)cc5)noc3C3CC3)C4)sc2c1 [Example 30-6]	42 nM
COc1cc(C(=O)O)cc2sc(N3C4CC[C@H]3CC(OCc3c(-c5ccc(F)cc5)noc3C3CC3)C4)nc12 (stereo partly drawn) [Example 30-7]	18 nM
COc1cc(C(=O)O)cc2sc(N3[C@@H]4CC[C@H]3C[C@@H](OCc3c(-c5cccc(F)c5)noc3C3CC3)C4)nc12 [Example 30-8]	21 nM
O=C(O)c1ccc(N2[C@@H]3CC[C@H]2C[C@@H](OCc2c(-c4cccc(F)c4)noc2C2CC2)C3)nc1 [Example 30-9]	340 nM
Cc1cc(C(=O)O)nc(N2C3CC[C@H]2CC(OCc2c(-c4cccc(F)c4)noc2C2CC2)C3)n1 (stereo partly drawn) [Example 30-10]	480 nM
COc1cc(C(=O)O)cc2sc(N3C4CC[C@H]3CC(OCc3c(-c5c(C)cccc5F)noc3C3CC3)C4)nc12 (stereo partly drawn) [Example 30-11]	0.3 nM
Cc1cccc(F)c1-c1noc(C2CC2)c1COC1CC2CC[C@@H](C1)N2c1ccc(C(=O)O)cn1 (stereo partly drawn) [Example 30-12]	5 nM
Cc1cc(C(=O)O)nc(N2[C@@H]3CC[C@H]2C[C@@H](OCc2c(-c4c(C)cccc4F)noc2C2CC2)C3)n1 [Example 30-13]	6 nM
COc1cc(C(=O)O)cc2sc(N3C4CC[C@H]3CC(OCc3c(-c5c(C)cccc5C)noc3C3CC3)C4)nc12 (stereo partly drawn) [Example 30-14]	1.2 nM
Cc1cccc(C)c1-c1noc(C2CC2)c1COC1CC2CC[C@@H](C1)N2c1ccc(C(=O)O)cn1 (stereo partly drawn) [Example 30-15]	9 nM
Cc1cc(C(=O)O)nc(N2C3CC[C@H]2CC(OCc2c(-c4c(C)cccc4C)noc2C2CC2)C3)n1 (stereo partly drawn) [Example 30-16]	24 nM
COc1cc(C(=O)O)cc2sc(N3C4CC[C@H]3CC(OCc3c(-c5c(F)cccc5Cl)noc3C3CC3)C4)nc12 (stereo partly drawn) [Example 30-17]	0.7 nM
O=C(O)c1ccc(N2[C@@H]3CC[C@H]2C[C@@H](OCc2c(-c4c(F)cccc4Cl)noc2C2CC2)C3)nc1 [Example 30-18]	6 nM
Cc1cc(C(=O)O)nc(N2C3CC[C@H]2CC(OCc2c(-c4c(F)cccc4Cl)noc2C2CC2)C3)n1 (stereo partly drawn) [Example 30-19]	23 nM
COc1cc(C(=O)O)cc2sc(N3[C@@H]4CC[C@H]3C[C@@H](OCc3c(-c5ccccc5Cl)noc3C3CC3)C4)nc12 [Example 30-20]	0.74 nM
O=C(O)c1ccc(N2C3CC[C@H]2CC(OCc2c(-c4ccccc4Cl)noc2C2CC2)C3)nc1 (stereo partly drawn) [Example 30-21]	3 nM
Cc1cc(C(=O)O)nc(N2C3CC[C@H]2CC(OCc2c(-c4ccccc4Cl)noc2C2CC2)C3)n1 (stereo partly drawn) [Example 30-22]	19 nM
O=C(O)c1cc(F)c2nc(N3[C@@H]4CC[C@H]3C[C@@H](OCc3c(-c5ccccc5C5CC5)noc3C3CC3)C4)sc2c1 [Example 30-23]	0.4 nM
O=C(O)c1ccc(N2[C@@H]3CC[C@H]2C[C@@H](OCc2c(-c4ccccc4C4CC4)noc2C2CC2)C3)nc1 [Example 30-24]	4 nM

SMILES	EC50
Cc1cc(C(=O)O)cnc1N1[C@@H]2CC[C@H]1C[C@@H](OCc1c(-c3c(F)cccc3F)noc1C1CC1)C2 [Example 30-25]	3 nM
Cc1cc(N2C3CC[C@H]2CC(OCc2c(-c4c(F)cccc4F)noc2C2CC2)C3)ncc1C(=O)O (stereo partly drawn) [Example 30-26]	7 nM
O=C(O)c1cccc(N2[C@@H]3CC[C@H]2C[C@@H](OCc2c(-c4ccccc4OC(F)F)noc2C2CC2)C3)n1 [Example 30-27]	7 nM
COC(=O)c1cc(C)c2nc(N3C4CC[C@H]3CC(OCc3c(-c5ccccc5OC(F)(F)F)noc3C3CC3)C4)sc2c1 (stereo partly drawn) [Example 30-28]	12 nM
Cc1cc(C(=O)O)cc2sc(N3C4CC[C@H]3CC(OCc3c(-c5ccccc5OC(F)(F)F)noc3C3CC3)C4)nc12 (stereo partly drawn) [Example 30-29]	0.5 nM
COC(=O)c1cc(C)c2nc(N3C4CC[C@H]3CC(OCc3c(-c5ccccc5C(F)(F)F)noc3C3CC3)C4)sc2c1 (stereo partly drawn) [Example 30-30]	120 nM
Cc1cc(C(=O)O)cc2sc(N3C4CC[C@H]3CC(OCc3c(-c5ccccc5C(F)(F)F)noc3C3CC3)C4)nc12 (stereo partly drawn) [Example 30-31]	7 nM
COC(=O)c1cc(C)c2nc(N3[C@@H]4CC[C@H]3C[C@@H](OCc3c(-c5c(F)cccc5F)noc3C3CC3)C4)sc2c1 [Example 30-32]	149 nM
Cc1cc(C(=O)O)cc2sc(N3C4CC[C@H]3CC(OCc3c(-c5c(F)cccc5F)noc3C3CC3)C4)nc12 (stereo partly drawn) [Example 30-33]	0.7 nM
Cc1cc(C(=O)O)cc2sc(N3C4CC[C@H]3CC(OCc3c(-c5ccccc5F)noc3C3CC3)C4)nc12 (stereo partly drawn) [Example 30-34]	1.8 nM
Cc1cc(C(=O)O)cc2sc(N3C4CC[C@H]3CC(OCc3c(-c5ccc(F)cc5)noc3C3CC3)C4)nc12 (stereo partly drawn) [Example 30-35]	46 nM
Cc1ccccc1-c1noc(C2CC2)c1COC1CC2CC[C@@H](C1)N2c1nc2c(C)cc(C(=O)O)cc2s1 (stereo partly drawn) [Example 30-36]	1.1 nM
COC(=O)c1cc(C)c2nc(N3C4CC[C@H]3CC(OCc3c(-c5ccccc5C)noc3C3CC3)C4)sc2c1 (stereo partly drawn) [Example 30-37]	140 nM
Cc1cc(C(=O)O)cc2sc(N3[C@@H]4CC[C@H]3C[C@@H](OCc3c(-c5ccc(F)cc5F)noc3C3CC3)C4)nc12 [Example 30-38]	1.8 nM
COC(=O)c1cc(Br)c2nc(N3C4CC[C@H]3CC(OCc3c(-c5ccccc5OC(F)(F)F)noc3C3CC3)C4)sc2c1 (stereo partly drawn) [Example 30-39]	36 nM
O=C(O)c1cc(Br)c2nc(N3C4CC[C@H]3CC(OCc3c(-c5ccccc5OC(F)(F)F)noc3C3CC3)C4)sc2c1 (stereo partly drawn) [Example 30-40]	0.7 nM
O=C(O)c1cc(C2CC2)nc(N2C3CC[C@H]2CC(OCc2c(-c4ccccc4OC(F)F)noc2C2CC2)C3)n1 (stereo partly drawn) [Example 30-41]	4 nM
O=C(O)c1cc(C2CC2)nc(N2C3CC[C@H]2CC(OCc2c(-c4ccccc4OC(F)(F)F)noc2C2CC2)C3)n1 (stereo partly drawn) [Example 30-42]	3 nM
O=C(O)c1cc(C2CC2)nc(N2C3CC[C@H]2CC(OCc2c(-c4ccccc4C(F)(F)F)noc2C2CC2)C3)n1 (stereo partly drawn) [Example 30-43]	4.6 nM
Cc1nc(N2C3CC[C@H]2CC(OCc2c(-c4ccccc4OC(F)(F)F)noc2C2CC2)C3)ccc1C(=O)O (stereo partly drawn) [Example 30-44]	8 nM
